Data taken from publication PMC6934184, “Selective DNA-PKcs inhibition extends the therapeutic index of localized radiotherapy and chemotherapy” (The Journal of Clinical Investigation, 2019).

Molecular target: T1, FGFR3 (Homo sapiens, UniProt P22607)
T1 construct: purchased Thermo Fisher Scientific (Life Technologies) SelectScreen
Assay: SelectScreen Z'LYTE
Assay type: biochemical
Summary of the method: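 NU5455 was profiled across the SelectScreen Broad panel of kinase activity and binding assays. Z'LYTE reactions such as CSF1R ran at apparent Km ATP, while the Adapta CAMK1 assay used ATP listed as 10. Values are given as percent.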

T1 sequence (P22607 23-806): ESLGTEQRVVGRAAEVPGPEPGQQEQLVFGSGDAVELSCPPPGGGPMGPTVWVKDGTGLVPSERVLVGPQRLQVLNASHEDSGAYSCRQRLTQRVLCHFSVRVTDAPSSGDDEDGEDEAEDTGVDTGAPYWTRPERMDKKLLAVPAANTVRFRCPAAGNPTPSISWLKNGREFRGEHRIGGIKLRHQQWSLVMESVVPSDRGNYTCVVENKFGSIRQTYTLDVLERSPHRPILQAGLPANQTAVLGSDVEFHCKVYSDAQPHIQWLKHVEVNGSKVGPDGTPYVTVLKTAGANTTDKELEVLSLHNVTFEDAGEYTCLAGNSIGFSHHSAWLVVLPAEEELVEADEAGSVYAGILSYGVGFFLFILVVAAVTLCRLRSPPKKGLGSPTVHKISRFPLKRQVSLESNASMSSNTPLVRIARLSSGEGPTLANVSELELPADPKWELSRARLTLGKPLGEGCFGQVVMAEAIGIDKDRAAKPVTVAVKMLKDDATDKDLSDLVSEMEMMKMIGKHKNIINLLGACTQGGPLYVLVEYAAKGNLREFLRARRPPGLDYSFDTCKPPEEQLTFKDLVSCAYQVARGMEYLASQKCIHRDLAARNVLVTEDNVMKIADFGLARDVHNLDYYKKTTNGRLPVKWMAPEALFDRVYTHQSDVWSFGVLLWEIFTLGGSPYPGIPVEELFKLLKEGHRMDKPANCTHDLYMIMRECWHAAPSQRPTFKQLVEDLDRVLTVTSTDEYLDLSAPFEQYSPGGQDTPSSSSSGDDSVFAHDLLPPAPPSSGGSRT

Compound `CN(C(=O)CN1CCOCC1)c1ccc2sc3c(-c4cccc5c(=O)cc(N6CC7CCC(C6)O7)oc45)cccc3c2c1` [NU5455] has an inhibition at 1 µM of 0.9%.
